Test results as given in patent US20230203081A1, “LINCOSAMIDE ANTIBIOTICS AND USES THEREOF” (President and Fellows of Harvard College, priority 2020, published 2023).
In brackets after ≈: the same amount, converted by molar mass.

Columns and labels:
Type in all cases: cell-based
[1] = test system: E. coli armA; assay: microbe, parasite or virus in culture; conditions: Escherichia coli, E. coli HAV#056; Clinical, armA
Summary of the method: (§1)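 Inoculum for broth microdilution was 5×10^5 CFU/mL final, prepared from overnight 35° C blood-agar subcultures (separate handling for streptococcal and anaerobic strains); MICs read by CLSI broth microdilution or agar dilution.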

[2] = test system: broad panel of different clinical isolates; assay: microbe, parasite or virus in culture
Summary of the method: as §1

[3] = test system: S. pneumoniae MMX 3031 cMefA; assay: MIC (broth microdilution or agar dilution, CLSI); conditions: Streptococcus pneumoniae, MMX3031CMEFA, S. pneumoniae HAV#034; MMX 3031, cMefA; read-out: MIC
Summary of the method: as §1

[4] = test system: K. pneumoniae ATCC 10031; assay: MIC (broth microdilution or agar dilution, CLSI); conditions: Klebsiella pneumoniae, ATCC10031
Summary of the method: as §1

[5] = test system: E. coli ATCC 25922; assay: MIC (broth microdilution or agar dilution, CLSI); conditions: Escherichia coli, ATCC25922; E. coli HAV#006, ATCC 25922; read-out: MIC
Summary of the method: as §1

[6] = test system: S. aureus hVISA; assay: MIC (broth microdilution or agar dilution, CLSI); conditions: Staphylococcus aureus; S. aureus HAV#204, hVISA; read-out: MIC
Summary of the method: as §1

[7] = test system: S. pyogenes MMX 946; cErmB; assay: MIC (broth microdilution or agar dilution, CLSI); conditions: Streptococcus pyogenes; S. pyogenes HAV#035, MMX 946; cErmB, mac-resistant; read-out: MIC
Summary of the method: as §1

[8] = test system: S. pyogenes ATCC 19615; assay: MIC (broth microdilution or agar dilution, CLSI); conditions: Streptococcus pyogenes, ATCC19615, S. pyogenes HAV#004, ATCC 19615; read-out: MIC
Summary of the method: as §1

[9] = test system: S. aureus ATCC 29213; assay: MIC (broth microdilution or agar dilution, CLSI); conditions: Staphylococcus aureus, ATCC29213, S. aureus HAV#001, ATCC 29213, MP-549; read-out: MIC
Summary of the method: as §1

[10] = test system: S. pneumoniae ATCC 49619; assay: MIC (broth microdilution or agar dilution, CLSI); conditions: Streptococcus pneumoniae, ATCC49619, S. pneumoniae HAV#003, ATCC 49619; read-out: MIC
Summary of the method: as §1

[11] = test system: S. pneumoniae MMX 3028 cErmB; assay: MIC (broth microdilution or agar dilution, CLSI); conditions: Streptococcus pneumoniae, MMX3028CERMB; S. pneumoniae HAV#033; MMX 3028, cErmB; read-out: MIC
Summary of the method: as §1

[12] = test system: S. aureus ATCC 700699; assay: MIC (broth microdilution or agar dilution, CLSI); conditions: Staphylococcus aureus; S. aureus HAV#202, ATCC 700699 (VISA); read-out: MIC
Summary of the method: as §1

[13] = test system: S. aureus MMX 3035 cErmA; assay: MIC (broth microdilution or agar dilution, CLSI); conditions: Staphylococcus aureus, MMX3035CERMA; S. aureus HAV#031, MMX 3035; cErmA; read-out: MIC
Summary of the method: as §1

[14] = test system: S. aureus ATCC BAA-1707 (MRSA); assay: MIC (broth microdilution or agar dilution, CLSI); conditions: Staphylococcus aureus
Summary of the method: as §1

[15] = test system: S. pneumoniae ATCC 6303; assay: MIC (broth microdilution or agar dilution, CLSI); conditions: Streptococcus pneumoniae, ATCC6303; S. pneumoniae HAV#351, ATCC 6303; read-out: MIC
Summary of the method: as §1

[16] = test system: E. faecalis ATCC 29212; assay: MIC (broth microdilution or agar dilution, CLSI); conditions: Enterococcus faecalis, ATCC29212, E. faecalis HAV#005, ATCC 29212; read-out: MIC
Summary of the method: as §1

[17] = test system: E. faecalis MMX 847; cErmB; assay: MIC (broth microdilution or agar dilution, CLSI); conditions: Enterococcus faecalis; E. faecalis HAV#036, MMX 847; mac-resistant, cErmB; read-out: MIC
Summary of the method: as §1

[18] = test system: K. oxytoca Clinical; assay: MIC (broth microdilution or agar dilution, CLSI); conditions: Klebsiella oxytoca; K. oxytoca HAV#450; Clinical; read-out: MIC
Summary of the method: as §1

[19] = test system: E. coli LptD; assay: MIC (broth microdilution or agar dilution, CLSI); conditions: Escherichia coli, E. coli HAV#040; LptD; read-out: MIC
Summary of the method: as §1

C[C@H]1COc2c(N3CCN(C)CC3)c(F)cc3c(=O)c(C(=O)O)cn1c23 [Levofloxacin]
MIC [1]: ≤ 0.06 µg/mL
MIC ([2]; Acinetobacter baumannii, A. baumannii HAV#651, Clinical): 0.125 µg/mL (≈ 0.346 µM)
MIC ([2]; Acinetobacter baumannii, A. baumannii HAV#652 Clinical): 1 µg/mL (≈ 2.77 µM)
MIC ([2]; Acinetobacter baumannii, A. baumannii HAV#653, Clinical): 0.25 µg/mL (≈ 0.692 µM)
MIC ([2]; Acinetobacter baumannii, A. baumannii HAV#654, Clinical): 0.125 µg/mL (≈ 0.346 µM)
MIC ([2]; Acinetobacter baumannii, A. baumannii HAV#655, Clinical): 0.5 µg/mL (≈ 1.38 µM)
MIC ([2]; Acinetobacter baumannii, A. baumannii HAV#656, Clinical): 32 µg/mL (≈ 88.6 µM)
MIC ([2]; Acinetobacter baumannii, A. baumannii HAV#657, Clinical): 0.5 µg/mL (≈ 1.38 µM)
MIC ([2]; Acinetobacter baumannii, A. baumannii HAV#658, Clinical): 0.25 µg/mL (≈ 0.692 µM)
MIC ([2]; Acinetobacter baumannii, A. baumannii HAV#659, Clinical): 16 µg/mL (≈ 44.3 µM)
MIC ([2]; Acinetobacter baumannii, A. baumannii HAV#660, Clinical): 64 µg/mL (≈ 177 µM)
MIC ([2]; Acinetobacter baumannii, A. baumannii HAV#661, Clinical): 0.125 µg/mL (≈ 0.346 µM)
MIC ([2]; Acinetobacter baumannii, A. baumannii HAV#662, Clinical): 8 µg/mL (≈ 22.1 µM)
MIC ([2]; Acinetobacter baumannii, A. baumannii HAV#663, Clinical): 0.25 µg/mL (≈ 0.692 µM)
MIC ([2]; Acinetobacter baumannii, A. baumannii HAV#664, Carbapenem R): 64 µg/mL (≈ 177 µM)
MIC ([2]; Enterococcus faecalis, E. faecalis HAV#602, Clincal): 1 µg/mL (≈ 2.77 µM)
MIC ([2]; Enterococcus faecalis, E. faecalis HAV#607, Clinical): 64 µg/mL (≈ 177 µM)
MIC ([2]; Enterococcus faecalis, E. faecalis HAV#608, Clinical): 64 µg/mL (≈ 177 µM)
MIC ([2]; Enterococcus faecalis, E. faecalis HAV#609, Clinical): 32 µg/mL (≈ 88.6 µM)
MIC ([2]; Enterococcus faecalis, E. faecalis HAV#610, Clinical): 8 µg/mL (≈ 22.1 µM)
MIC ([2]; Enterococcus faecalis, S. faecalis 5060, Line R & Vanco R): 64 µg/mL (≈ 177 µM)
MIC ([2]; Enterococcus faecalis, S. faecalis 5074, Line R): 8 µg/mL (≈ 22.1 µM)
MIC ([2]; Enterococcus faecalis, VRE, E. faecalis HAV#251, Clinical VRE): 2 µg/mL (≈ 5.53 µM)
MIC ([2]; Enterococcus faecalis, VRE, E. faecalis HAV#606, Clinical): 128 µg/mL (≈ 354 µM)
MIC ([2]; Enterococcus faecium, E. faecium HAV#317, Clinical): 2 µg/mL (≈ 5.53 µM)
MIC ([2]; Enterococcus faecium, E. faecium HAV#324, Clinical): > 128 µg/mL
MIC ([2]; Enterococcus faecium, E. faecium HAV#327, Clinical): 4 µg/mL (≈ 11.1 µM)
MIC ([2]; Enterococcus faecium, E. faecium HAV#328, Clinical): 128 µg/mL (≈ 354 µM)
MIC ([2]; Enterococcus faecium, E. faecium HAV#329, Clinical): 128 µg/mL (≈ 354 µM)
MIC ([2]; Enterococcus faecium, VRE, E. faecium HAV#319, Line R & Vanco R): 128 µg/mL (≈ 354 µM)
MIC ([2]; Enterococcus faecium, VRE, E. faecium HAV#320, Clinical): 4 µg/mL (≈ 11.1 µM)
MIC ([2]; Escherichia coli, E. coli HAV#501, Clinical): 32 µg/mL (≈ 88.6 µM)
MIC ([2]; Escherichia coli, E. coli HAV#503, Clinical): 64 µg/mL (≈ 177 µM)
MIC ([2]; Escherichia coli, E. coli HAV#511, Clinical): 4 µg/mL (≈ 11.1 µM)
MIC ([2]; Escherichia coli, E. coli HAV#512, Clinical): < 0.06 µg/mL
MIC ([2]; Escherichia coli, E. coli HAV#513, Clinical): 2 µg/mL (≈ 5.53 µM)
MIC ([2]; Escherichia coli, E. coli HAV#514, Clinical): < 0.06 µg/mL
MIC ([2]; Escherichia coli, E. coli HAV#516, ESBL-producing): 16 µg/mL (≈ 44.3 µM)
MIC ([2]; Haemophilus influenzae, ATCC9007, H. influenzae HAV#376, ATCC-9007): 0.03 µg/mL (≈ 0.083 µM)
MIC ([2]; Klebsiella pneumoniae, K. pneumoniae HAV#041, Clinical, KPC): 64 µg/mL (≈ 177 µM)
MIC ([2]; Klebsiella pneumoniae, K. pneumoniae HAV#404, Clinical): 1 µg/mL (≈ 2.77 µM)
MIC ([2]; Klebsiella pneumoniae, K. pneumoniae HAV#405, Clinical): 1 µg/mL (≈ 2.77 µM)
MIC ([2]; Klebsiella pneumoniae, K. pneumoniae HAV#406, Clinical): 0.125 µg/mL (≈ 0.346 µM)
MIC ([2]; Klebsiella pneumoniae, K. pneumoniae HAV#407, Clinical): > 128 µg/mL
MIC ([2]; Klebsiella pneumoniae, K. pneumoniae HAV#408, Clinical): 1 µg/mL (≈ 2.77 µM)
MIC ([2]; Klebsiella pneumoniae, K. pneumoniae HAV#409, ESBL-producing): 0.5 µg/mL (≈ 1.38 µM)
MIC ([2]; Staphylococcus aureus, MRSA, S. aureus HAV#0107, MRSA Col(Colindale, England)): 1 µg/mL (≈ 2.77 µM)
MIC ([2]; Staphylococcus aureus, MRSA, S. aureus HAV#218, Line R): 0.25 µg/mL (≈ 0.692 µM)
MIC ([2]; Staphylococcus aureus, MRSA, S. aureus HAV#220, Line R): 64 µg/mL (≈ 177 µM)
MIC ([2]; Staphylococcus aureus, MSSA, S. aureus HAV#219, Line R): 0.25 µg/mL (≈ 0.692 µM)
MIC ([2]; Staphylococcus aureus, S. aureus HAV#051, mecA, norA, spcl, ermA, aad1, aac6′-aph2″): 0.5 µg/mL (≈ 1.38 µM)
MIC ([2]; Staphylococcus aureus, S. aureus HAV#052, mecA, norA, fosB, blaZ): 1 µg/mL (≈ 2.77 µM)
MIC ([2]; Staphylococcus aureus, S. aureus HAV#053 mecA, norA, fosB): 0.5 µg/mL (≈ 1.38 µM)
MIC ([2]; Staphylococcus aureus, S. aureus HAV#054, mecA, norA, spcl, aad1, fosB, ermA, aac6′-aph2″, blaZ): 32 µg/mL (≈ 88.6 µM)
MIC ([2]; Staphylococcus aureus, S. aureus HAV#212, Clinical): 0.25 µg/mL (≈ 0.692 µM)
MIC ([2]; Staphylococcus aureus, S. aureus HAV#213, Clinical): 2 µg/mL (≈ 5.53 µM)
MIC ([2]; Staphylococcus aureus, S. aureus HAV#214, Clinical): 0.25 µg/mL (≈ 0.692 µM)
MIC ([2]; Staphylococcus aureus, S. aureus HAV#215, Clinical): 0.25 µg/mL (≈ 0.692 µM)
MIC ([2]; Staphylococcus aureus, S. aureus HAV#217, cfr): 2 µg/mL (≈ 5.53 µM)
MIC ([2]; Staphylococcus aureus, VISA, S. aureus HAV#203, Clinical (VISA)): 8 µg/mL (≈ 22.1 µM)
MIC ([2]; Staphylococcus epidermidis, S. epidermidis HAV# 275 Clinical, cfr): 16 µg/mL (≈ 44.3 µM)
MIC ([2]; Staphylococcus epidermidis, S. epidermidis HAV# 276, cfr): 128 µg/mL (≈ 354 µM)
MIC ([2]; Staphylococcus epidermidis, S. epidermidis HAV#277, Line R): > 128 µg/mL
MIC ([2]; Staphylococcus epidermidis, S. epidermidis HAV#278 Line R): 16 µg/mL (≈ 44.3 µM)
MIC ([2]; Staphylococcus epidermidis, S. epidermidis HAV#279, Line R): 8 µg/mL (≈ 22.1 µM)
MIC ([2]; Staphylococcus haemolyticus, S. haemolyticus 5052, Line R & Methicillin R): 8 µg/mL (≈ 22.1 µM)
MIC ([2]; Streptococcus pneumoniae, ATCC700673, S. pneumoniae HAV#352, ATCC 700673, MDR): 0.5 µg/mL (≈ 1.38 µM)
MIC ([2]; Streptococcus pneumoniae, ATCCBAA255, S. pneumoniae HAV#354, ATCC-BAA-255): 0.25 µg/mL (≈ 0.692 µM)
MIC ([2]; Streptococcus pneumoniae, ATCCBAA334, S. pneumoniae HAV#353, ATCC-BAA-334): 0.5 µg/mL (≈ 1.38 µM)
MIC ([2]; Streptococcus pneumoniae, S. pneumoniae HAV#356, Clinical): 0.25 µg/mL (≈ 0.692 µM)
MIC ([2]; Streptococcus pneumoniae, S. pneumoniae HAV#358, Clinical): 0.25 µg/mL (≈ 0.692 µM)
MIC [3]: 0.5 µg/mL (≈ 1.38 µM)
MIC [4]: ≤ 0.03 µg/mL
MIC [5]: ≤ 0.06 µg/mL
MIC [6]: 8 µg/mL (≈ 22.1 µM)
MIC [7]: 0.5 µg/mL (≈ 1.38 µM)
MIC [8]: 0.5 µg/mL (≈ 1.38 µM)
MIC [9]: 0.25 µg/mL (≈ 0.692 µM)
MIC [10]: 1 µg/mL (≈ 2.77 µM)
MIC [11]: 0.5 µg/mL (≈ 1.38 µM)
MIC [12]: 32 µg/mL (≈ 88.6 µM)
MIC [13]: 4 µg/mL (≈ 11.1 µM)
MIC [14]: > 128 µg/mL
MIC [15]: 0.5 µg/mL (≈ 1.38 µM)
MIC [16]: 2 µg/mL (≈ 5.53 µM)
MIC [17]: > 64 µg/mL
MIC [18]: 0.5 µg/mL (≈ 1.38 µM)
MIC [19]: ≤ 0.06 µg/mL
